Data on six compounds can be found in PMC4564290 (Journal of Molecular and Cellular Cardiology, 2015).

Entries after “also recorded” stand apart in the source; their conditions may differ.

Series [1] deals with N588K hERG (Homo sapiens, UniProt Q12809, N588K). Set-up: expressed in transfected cells; host or cells: HEK cells. The settings on record: IC50 mutant/IC50 WT; mammalian expression; ref 15 of supplement; cited from earlier work.
The target in series [2] is T1, wild-type (WT) hERG channels (Homo sapiens, UniProt Q12809).
T1 construct: expressed in transfected cells
Briefly: Whole-cell patch clamp of WT IhERG in HEK293 cells at 37 °C. The series is classed as cell-based. As to conditions: for Fraction of unblocked IhERG: 6–8 min; for Whole-cell IhERG current density: ~6 min, drug-free control 315.3 ± 56.7. (Patch clamp records ionic current or voltage across a cell membrane.)
Procedure: (§1) HEK cells stably or transiently expressing hERG channel constructs were cultured as previously described [[34,37]]. The cells were plated in 40 mm petri dishes at least 48 h before transfection and incubated at 37 °C (5% CO2). Cells were transfected with Lipofectamine™ LTX (Invitrogen) following the manufacturer's instructions. The amount of transfected hERG construct DNA varied between 0.2 and 1.0 μg depending on the level of functional expression (assessed as current magnitudes) of each hERG channel construct. 0.5 to 1.0 μg of CD8 was co-transfected as a transfection-marker and successfully transfected cells were identified using Dynabeads® (Invitrogen). Cells were plated on small sterilized glass shards in 40 mm petri dishes and incubated at 37 °C (5% CO2) for at least 24 h before electrophysiological recording.
(§2) Glass shards containing plated cells were placed in a recording chamber mounted on an inverted microscope (Nikon Diaphot, USA). The cells were continuously superfused with a pre-warmed (37 °C) standard Tyrode's solution containing (in mM) the following: 140 NaCl, 4 KCl, 2.5 CaCl2, 1 MgCl2, 10 Glucose, 5 HEPES (titrated to pH 7.4 with NaOH). […] Patch-pipettes were dialysed with an intracellular solution containing (in mM) the following: 130 KCl, 1 MgCl2, 5 EGTA, 5 MgATP, 10 HEPES (titrated to pH 7.2 with KOH). All recordings were made using an Axopatch 200B amplifier (Axon Instruments, now Molecular Devices) and a CV203BU head-stage. Pipette resistance compensation was between 70 and 80%. […] Data digitization rates were 10–25 kHz during all voltage protocols and an appropriate bandwidth of 2–10 kHz was set on the amplifier.
For statistical analysis, data were subject to the Kolmogorov–Smirnov normality test. Statistical comparisons were made using paired or unpaired two-tailed t tests, Wilcoxon matched pairs signed rank test, Mann–Whitney U test and one way (repeated measures, where indicated) or two way ANOVA, as appropriate.
Block of IhERG was assessed by calculating the reduction in drug of the outward ‘tail’ current at − 40 mV (assessed as the difference in magnitude between peak tail current and instantaneous current activated by the brief (50 ms) depolarization from − 80 to − 40 mV [[24,34,37]]). […] The fractional inhibition at each of four concentrations was calculated using Eq. (1) (supplementary information) and the mean values were plotted as shown in Fig. 1D and then fitted with a standard Hill equation (Eq. (2), supplementary information). […] The low expression and kinetics of some mutant channels included in this study requires that IhERG be studied as an inward current in high (94 mM) [K^+]o [[34,35,37]].
We tested the effect of two concentrations (10 and 100 μM) of each analogue applied from the cell exterior (superfusate) and interior (the latter through the patch-pipette). […] As soon as the whole-cell configuration was achieved the drug molecules were free to diffuse inside the cytoplasm, precluding cells acting as their own control.

The conditions of series [3]: cited from earlier work.
Series [4] concerns the target T2, F656A hERG (Homo sapiens, UniProt Q12809, F656A). Put plainly: Patch clamp of F656A S6 helix mutant IhERG. In kind it is cell-based. Set-up: expressed in transfected cells; host or cells: HEK cells. As to conditions: internal (patch-pipette) application 100 µM, tails at -120 mV, n=8 vs control n=12.
Procedure: as §1, §2
To investigate potential binding determinants in the pore region we studied alanine mutants of three residues (G648, Y652 and F656) located within the channel inner cavity on the S6 helix. […]
In series [5] the test system is F656V hERG. The settings on record: cited from earlier work.
In series [6] the target is Y652A hERG (Homo sapiens, UniProt Q12809, Y652A). On the set-up: expressed in transfected cells. As to conditions: 300 μM (profound blocking concentration for WT IhERG), Xenopus oocyte expression; cited from earlier work.
Series [7] has as its target T2, F656A hERG. As to conditions: 300 μM (profound blocking concentration for WT IhERG), Xenopus oocyte expression; cited from earlier work.
In series [8] the test system is feline ventricular E-4031 sensitive delayed rectifier current. The settings on record: cited from earlier work.
Series [9] relates to Kv1.5 V505 mutated to phenylalanine. On the set-up: method as in PMID 17872968. As to conditions: cited from earlier work.
The subject of series [10] is L-type calcium current. As to conditions: cited from earlier work.
[11] abbreviates: external application (superfusate) 10 μM.
Setting [12] is: external application (superfusate) 100 μM.
The mark [13] stands for this setting: internal application via patch-pipette 10 μM.
[14] abbreviates: internal application via patch-pipette 100 μM.

T1 sequence (Q12809 whole entry): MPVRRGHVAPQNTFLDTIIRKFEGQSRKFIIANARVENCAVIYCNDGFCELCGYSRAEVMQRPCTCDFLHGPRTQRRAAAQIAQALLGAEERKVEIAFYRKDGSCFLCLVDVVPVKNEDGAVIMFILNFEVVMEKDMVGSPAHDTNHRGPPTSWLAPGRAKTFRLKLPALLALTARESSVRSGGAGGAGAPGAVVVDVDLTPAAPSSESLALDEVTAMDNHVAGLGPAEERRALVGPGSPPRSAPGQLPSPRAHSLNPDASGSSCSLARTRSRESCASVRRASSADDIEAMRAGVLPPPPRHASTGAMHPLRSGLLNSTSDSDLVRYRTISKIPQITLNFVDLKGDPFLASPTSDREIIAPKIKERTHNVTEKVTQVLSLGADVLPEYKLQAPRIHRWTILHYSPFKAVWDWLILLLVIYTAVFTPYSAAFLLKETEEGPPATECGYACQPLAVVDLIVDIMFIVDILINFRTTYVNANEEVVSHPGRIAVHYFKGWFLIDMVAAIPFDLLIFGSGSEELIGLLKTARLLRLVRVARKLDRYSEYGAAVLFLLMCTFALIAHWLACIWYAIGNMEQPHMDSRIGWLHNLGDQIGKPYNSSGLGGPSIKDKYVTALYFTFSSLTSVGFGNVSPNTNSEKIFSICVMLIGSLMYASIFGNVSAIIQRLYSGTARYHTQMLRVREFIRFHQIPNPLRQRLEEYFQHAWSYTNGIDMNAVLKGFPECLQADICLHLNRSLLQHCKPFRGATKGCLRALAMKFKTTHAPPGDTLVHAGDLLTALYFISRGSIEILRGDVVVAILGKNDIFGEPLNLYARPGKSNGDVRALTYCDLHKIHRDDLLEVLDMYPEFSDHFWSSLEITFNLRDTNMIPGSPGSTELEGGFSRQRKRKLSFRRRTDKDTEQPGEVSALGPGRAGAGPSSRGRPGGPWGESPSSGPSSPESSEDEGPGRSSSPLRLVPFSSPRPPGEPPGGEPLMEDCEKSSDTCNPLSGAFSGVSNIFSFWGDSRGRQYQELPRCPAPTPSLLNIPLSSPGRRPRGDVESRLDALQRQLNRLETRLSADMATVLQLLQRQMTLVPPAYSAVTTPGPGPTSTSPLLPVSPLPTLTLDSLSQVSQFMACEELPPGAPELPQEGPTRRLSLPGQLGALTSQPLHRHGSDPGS
T2 sequence (Q12809 whole entry F656A): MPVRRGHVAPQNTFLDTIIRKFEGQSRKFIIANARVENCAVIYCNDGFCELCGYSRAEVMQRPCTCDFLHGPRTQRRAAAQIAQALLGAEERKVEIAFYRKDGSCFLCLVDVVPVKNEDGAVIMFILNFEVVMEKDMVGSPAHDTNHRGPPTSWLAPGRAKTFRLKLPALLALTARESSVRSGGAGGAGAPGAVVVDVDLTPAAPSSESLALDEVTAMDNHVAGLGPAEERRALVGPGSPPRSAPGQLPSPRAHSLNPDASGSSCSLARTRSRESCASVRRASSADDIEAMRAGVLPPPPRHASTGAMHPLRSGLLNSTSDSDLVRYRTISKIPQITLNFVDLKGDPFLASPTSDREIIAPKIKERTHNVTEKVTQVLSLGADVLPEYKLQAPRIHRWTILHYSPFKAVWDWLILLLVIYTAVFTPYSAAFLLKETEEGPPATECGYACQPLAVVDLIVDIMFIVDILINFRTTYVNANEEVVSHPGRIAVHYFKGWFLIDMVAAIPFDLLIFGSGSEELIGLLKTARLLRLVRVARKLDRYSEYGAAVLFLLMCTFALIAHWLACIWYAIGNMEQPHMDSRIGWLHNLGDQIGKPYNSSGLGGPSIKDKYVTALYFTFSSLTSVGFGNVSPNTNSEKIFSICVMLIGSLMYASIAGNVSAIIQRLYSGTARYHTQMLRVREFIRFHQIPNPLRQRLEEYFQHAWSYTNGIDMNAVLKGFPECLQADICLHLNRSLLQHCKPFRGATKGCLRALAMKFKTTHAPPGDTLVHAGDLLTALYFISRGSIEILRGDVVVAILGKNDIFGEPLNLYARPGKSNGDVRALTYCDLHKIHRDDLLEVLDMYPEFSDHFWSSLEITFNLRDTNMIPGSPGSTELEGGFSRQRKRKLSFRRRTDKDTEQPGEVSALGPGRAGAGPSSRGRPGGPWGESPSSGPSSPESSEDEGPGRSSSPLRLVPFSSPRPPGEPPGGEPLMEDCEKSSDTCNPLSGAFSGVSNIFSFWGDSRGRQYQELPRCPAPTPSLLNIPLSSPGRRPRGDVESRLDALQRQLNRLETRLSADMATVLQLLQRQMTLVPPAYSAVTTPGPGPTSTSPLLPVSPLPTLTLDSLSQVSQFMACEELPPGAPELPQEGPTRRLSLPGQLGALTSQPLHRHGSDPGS
Y652A hERG, sequence (Q12809 whole entry Y652A): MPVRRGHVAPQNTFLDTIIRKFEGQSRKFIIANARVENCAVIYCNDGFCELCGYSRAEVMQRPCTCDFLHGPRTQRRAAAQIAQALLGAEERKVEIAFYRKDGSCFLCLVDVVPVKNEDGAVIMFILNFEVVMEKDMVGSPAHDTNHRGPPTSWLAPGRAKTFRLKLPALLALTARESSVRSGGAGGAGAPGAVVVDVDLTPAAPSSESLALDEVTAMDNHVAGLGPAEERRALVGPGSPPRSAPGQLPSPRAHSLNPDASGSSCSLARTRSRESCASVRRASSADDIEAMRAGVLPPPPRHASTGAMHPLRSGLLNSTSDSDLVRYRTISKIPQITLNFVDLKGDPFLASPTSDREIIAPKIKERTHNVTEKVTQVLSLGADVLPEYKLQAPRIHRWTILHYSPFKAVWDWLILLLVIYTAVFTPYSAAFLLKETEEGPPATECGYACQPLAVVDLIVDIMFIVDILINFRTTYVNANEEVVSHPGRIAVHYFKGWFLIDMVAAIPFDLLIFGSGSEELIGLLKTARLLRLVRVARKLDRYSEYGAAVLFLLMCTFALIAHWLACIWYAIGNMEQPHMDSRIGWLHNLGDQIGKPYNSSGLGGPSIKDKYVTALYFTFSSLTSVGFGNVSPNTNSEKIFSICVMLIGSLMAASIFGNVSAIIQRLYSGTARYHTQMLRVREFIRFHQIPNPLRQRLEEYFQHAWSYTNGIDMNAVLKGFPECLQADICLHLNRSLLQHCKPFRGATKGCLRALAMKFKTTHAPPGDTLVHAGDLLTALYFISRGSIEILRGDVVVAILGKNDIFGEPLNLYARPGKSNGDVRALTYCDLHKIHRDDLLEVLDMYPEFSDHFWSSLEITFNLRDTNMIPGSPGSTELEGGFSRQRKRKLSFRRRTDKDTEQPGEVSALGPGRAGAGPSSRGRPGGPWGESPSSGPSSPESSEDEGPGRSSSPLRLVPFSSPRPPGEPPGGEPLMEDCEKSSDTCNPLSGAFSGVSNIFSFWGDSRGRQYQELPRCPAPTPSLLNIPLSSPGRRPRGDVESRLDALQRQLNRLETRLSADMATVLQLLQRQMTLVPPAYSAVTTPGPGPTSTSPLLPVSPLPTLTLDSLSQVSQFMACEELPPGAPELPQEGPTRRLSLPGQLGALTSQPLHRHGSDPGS
N588K hERG, sequence (Q12809 whole entry N588K): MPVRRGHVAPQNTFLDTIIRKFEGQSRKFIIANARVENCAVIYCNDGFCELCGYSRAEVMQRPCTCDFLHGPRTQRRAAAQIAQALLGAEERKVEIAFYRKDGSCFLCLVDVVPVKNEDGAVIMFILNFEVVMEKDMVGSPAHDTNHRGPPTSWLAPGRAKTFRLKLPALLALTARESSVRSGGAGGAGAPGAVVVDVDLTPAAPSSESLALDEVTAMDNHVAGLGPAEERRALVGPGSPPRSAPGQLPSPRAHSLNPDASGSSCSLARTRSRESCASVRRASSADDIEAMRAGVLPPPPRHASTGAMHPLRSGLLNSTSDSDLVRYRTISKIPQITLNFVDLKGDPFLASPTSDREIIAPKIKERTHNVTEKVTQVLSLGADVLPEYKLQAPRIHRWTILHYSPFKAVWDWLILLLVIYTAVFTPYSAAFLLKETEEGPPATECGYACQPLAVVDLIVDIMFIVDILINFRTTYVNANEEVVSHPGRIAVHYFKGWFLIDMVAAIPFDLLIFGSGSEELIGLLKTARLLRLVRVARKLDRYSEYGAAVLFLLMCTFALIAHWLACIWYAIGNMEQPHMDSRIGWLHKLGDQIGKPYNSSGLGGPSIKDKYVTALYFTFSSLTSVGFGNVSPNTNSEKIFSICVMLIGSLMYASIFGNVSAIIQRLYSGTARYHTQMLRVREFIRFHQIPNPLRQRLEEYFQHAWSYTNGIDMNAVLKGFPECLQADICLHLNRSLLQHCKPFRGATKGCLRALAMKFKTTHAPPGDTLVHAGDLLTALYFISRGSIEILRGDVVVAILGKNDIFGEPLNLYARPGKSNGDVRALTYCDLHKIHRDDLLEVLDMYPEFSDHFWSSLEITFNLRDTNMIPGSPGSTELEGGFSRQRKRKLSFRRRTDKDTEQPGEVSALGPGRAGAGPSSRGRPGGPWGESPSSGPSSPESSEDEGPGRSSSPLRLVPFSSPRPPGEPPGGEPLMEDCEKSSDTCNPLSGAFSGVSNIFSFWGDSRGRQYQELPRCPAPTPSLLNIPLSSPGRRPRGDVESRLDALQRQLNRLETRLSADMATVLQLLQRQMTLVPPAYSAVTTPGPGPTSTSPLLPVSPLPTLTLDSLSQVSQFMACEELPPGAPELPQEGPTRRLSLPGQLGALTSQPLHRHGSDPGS

As to `CC(C)NC[C@@H](O)c1ccc(NS(C)(=O)=O)cc1` [D-Sotalol], the “Fold-change in IC50 N588K compared to WT IhERG” value in series [1] was 20 fold.
As usually defined, the pKa is the pH at which an ionisable group is half protonated. On to `O=C(NCCN1CCOCC1)c1cc(OCC(F)(F)F)ccc1OCC(F)(F)F` [NU-Flec], for which the “Fraction of unblocked IhERG” value was 75.8 ± 4.4% in series [2] (setting [11]) and 50.2 ± 4.3% in series [2] (setting [12]). Also, the entries for the “Whole-cell IhERG current density” value in series [2] (setting [13]) and in [2] (setting [14]) were 283.2 ± 63.4 pA/pF and 359.8 ± 56.1 pA/pF, respectively. Moreover, the pKa in [3] is listed as 6.3.
Consider `C[N+]1(C)CCCCC1CNC(=O)c1cc(OCC(F)(F)F)ccc1OCC(F)(F)F` (centres unmarked) [QX-Flec], for which, in series [4], the “Effect on density of inward F656A IhERG tails vs drug-free control” value was “ineffective; also recorded: no significant difference; also recorded: little inhibition”. For the same compound, the “Fraction of unblocked IhERG” value in series [2] (setting [11]) is 72.2 ± 4.6%; in series [2] (setting [12]), 54.6 ± 3.5%. Moreover, the “Whole-cell IhERG current density” value in series [2] (setting [13]) is on record as 55.3 ± 5.9 pA/pF; in series [2] (setting [14]) it was 9.3 ± 1.9 pA/pF.
Turning to `C=C[C@H]1C[N@@]2CC[C@H]1C[C@@H]2[C@@H](O)c1ccnc2ccc(OC)cc12` [Quinidine], in series [5], the “Increase in IhERG IC50 with F656V” value is ~ 27 fold.
With `CC[C@H]1[C@@H]2C[C@H]3[C@@H]4N(C)c5ccccc5[C@]45C[C@@H]([C@H]2[C@H]5O)N3[C@@H]1O` [ajmaline], the “Inhibitory action on Y652A IhERG” value in series [6] is given as “ineffective”. Moreover, the “Inhibitory action on F656A IhERG” value in series [7] is “ineffective”.
The IC50 is the concentration that inhibits the measured activity by half. As to `O=C(NCC1CCCCN1)c1cc(OCC(F)(F)F)ccc1OCC(F)(F)F` (centres unmarked) [flecainide, Flecainide acetate], the values for the IC50 in series [8] and in [10] were 2.1 µM and about 20 µM, respectively. Besides, the “Increase in blocking potency on mutating V505 to phenylalanine” value in series [9] is 9 fold.
